Reference: patent US8232409B2, “Heterocyclic benzimidazoles as TRPM8 modulators” (Janssen Pharmaceutica N.V., priority 2008, dated 2012)
pIC50: −log10 of the molar value. Where a name gives a salt, the structure may show the parent alone.

Target: T1, canine TRPM8 (Canis lupus familiaris, UniProt Q1A7N1)
T1 construct: expressed in transfected cells
Test: In vitro canine TRPM8 functional assay (icilin-induced intracellular Ca2+, FLIPR/FDSS);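 also: intracellular Ca2+ tracked with a Ca2+-sensitive fluorescent dye, compound applied 5 min before icilin was added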
Format: cell-based
Details: HEK293 cells stably expressing canine TRPM8; for inhibition at 0.2 µM: 0.200 μM compound, icilin challenge (~80% maximal response), read-out: % Inh. @ 0.200 μM; for pIC50: icilin challenge, eight-point dose-response

T1 sequence (Q1A7N1 1-1104): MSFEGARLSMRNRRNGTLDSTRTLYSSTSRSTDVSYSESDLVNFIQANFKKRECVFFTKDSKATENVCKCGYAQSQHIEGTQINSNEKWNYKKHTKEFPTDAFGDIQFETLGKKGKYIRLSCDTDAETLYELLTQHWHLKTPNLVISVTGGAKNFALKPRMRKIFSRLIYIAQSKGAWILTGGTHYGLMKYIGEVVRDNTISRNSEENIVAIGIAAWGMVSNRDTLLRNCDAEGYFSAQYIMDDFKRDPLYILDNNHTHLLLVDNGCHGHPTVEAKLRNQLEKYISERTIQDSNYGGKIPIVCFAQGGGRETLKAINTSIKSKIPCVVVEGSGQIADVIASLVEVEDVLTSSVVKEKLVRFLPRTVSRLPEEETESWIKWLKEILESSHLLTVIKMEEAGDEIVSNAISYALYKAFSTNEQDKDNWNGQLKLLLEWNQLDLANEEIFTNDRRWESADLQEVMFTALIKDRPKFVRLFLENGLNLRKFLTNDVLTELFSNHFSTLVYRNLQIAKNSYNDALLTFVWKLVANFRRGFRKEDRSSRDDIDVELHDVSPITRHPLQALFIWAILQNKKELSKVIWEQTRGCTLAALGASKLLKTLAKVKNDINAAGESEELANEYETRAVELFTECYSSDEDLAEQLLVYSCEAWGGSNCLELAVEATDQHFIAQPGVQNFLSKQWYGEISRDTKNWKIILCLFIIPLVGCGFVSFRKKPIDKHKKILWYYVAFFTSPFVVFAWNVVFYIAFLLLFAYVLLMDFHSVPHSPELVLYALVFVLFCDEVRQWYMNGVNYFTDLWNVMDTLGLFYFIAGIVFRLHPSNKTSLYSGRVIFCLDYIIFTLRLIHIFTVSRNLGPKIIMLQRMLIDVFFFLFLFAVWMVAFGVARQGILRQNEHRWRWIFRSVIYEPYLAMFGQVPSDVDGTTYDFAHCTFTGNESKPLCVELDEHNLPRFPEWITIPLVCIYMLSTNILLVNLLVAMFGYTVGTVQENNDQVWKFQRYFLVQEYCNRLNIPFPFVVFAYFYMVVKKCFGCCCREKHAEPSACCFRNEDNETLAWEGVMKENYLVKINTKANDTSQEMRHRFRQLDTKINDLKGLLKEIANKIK

SMILES	inhibition at 0.2 µM	pIC50
Cc1cc(-c2ccccc2F)cc2nc(C3=NOC4(CCCCC4)C3)[nH]c12 [Cpd 47, 3-[7-Methyl-5-(2-fluorophenyl)-1H-benzimidazol-2-yl]-1-oxa-2-aza-spiro[4.5]dec-2-ene hydrochloride]	97%	8.16
FC(F)(F)Oc1ccccc1-c1ccc2[nH]c(C3=NCC4(CCCCC4)O3)nc2c1 [Cpd 3, 2-[5-(2-Trifluoromethoxy-phenyl)-1H-benzimidazol-2-yl]-1-oxa-3-aza-spiro[4.5]dec-2-ene]	60%	–
Fc1cc(-c2ccccc2C(F)(F)F)cc2nc(C3=NOC4(CCCCC4)C3)[nH]c12 [Cpd 14, 3-[7-Fluoro-5-(2-trifluoromethyl-phenyl)-1H-benzimidazol-2-yl]-1-oxa-2-aza-spiro[4.5]dec-2-ene hydrochloride]	102%	–
OCCCc1cc(-c2ccccc2C(F)(F)F)cc2nc(C3=NOC4(CCCCC4)C3)[nH]c12 [Cpd 22, 3-[2-(1-Oxa-2-aza-spiro[4.5]dec-2-en-3-yl)-6-(2-trifluoromethylphenyl)-3H-benzimidazol-4-yl]-propan-1-ol hydrochloride]	103%	–
FC(F)(F)c1ccccc1-c1ccc2[nH]c(C3=NC4(CCOCC4)CO3)nc2c1 [Cpd 29, 2-[5-(2-Trifluoromethyl-phenyl)-1H-benzimidazol-2-yl]-3,8-dioxa-1-aza-spiro[4.5]dec-1-ene]	71%	7.00
Fc1ccccc1-c1ccc2[nH]c(C3=NOC4(CCCCC4)C3)nc2c1 [Cpd 23, 3-[5-(2-Fluoro-phenyl)-1H-benzimidazol-2-yl]-1-oxa-2-aza-spiro[4.5]dec-2-ene trifluoroacetic acid salt]	103%	–
Fc1cccc(F)c1-c1ccc2[nH]c(C3=NOC4(CCOCC4)C3)nc2c1 [Cpd 38, 3-[5-(2,6-Difluoro-phenyl)-1H-benzimidazol-2-yl]-1,8-dioxa-2-aza-spiro[4.5]dec-2-ene hydrochloride]	99%	8.08
Fc1ccccc1-c1cc(Cl)c2[nH]c(C3=NOC4(CCCCC4)C3)nc2c1 [Cpd 49, 3-[7-Chloro-5-(2-fluorophenyl)-1H-benzimidazol-2-yl]-1-oxa-2-aza-spiro[4.5]dec-2-ene methanesulfonate]	101%	8.21
FC(F)(F)Oc1ccccc1-c1ccc2nc(C3=NC4(CCCCC4)CO3)[nH]c2c1 [Cpd 2, 2-[5-(2-Trifluoromethoxy-phenyl)-1H-benzimidazol-2-yl]-3-oxa-1-aza-spiro[4.5]dec-1-ene]	106%	8.15
Clc1ccccc1-c1ccc2[nH]c(C3=NOC4(CCOCC4)C3)nc2c1 [Cpd 40, 3-[5-(2-Chloro-phenyl)-1H-benzimidazol-2-yl]-1,8-dioxa-2-aza-spiro[4.5]dec-2-ene hydrochloride]	98%	7.96
FC(F)(F)c1ccccc1-c1ccc2[nH]c(C3=NOC4(CCOCC4)C3)nc2c1 [Cpd 9, 3-[5-(2-Trifluoromethylphenyl)-1H-benzimidazol-2-yl]-1,8-dioxa-2-aza-spiro[4.5]dec-2-ene]	101%	–
CC1(C)CCC2(CC1)CC(c1nc3cc(-c4ccccc4C(F)(F)F)cc(Cl)c3[nH]1)=NO2 [Cpd 41, 3-[7-Chloro-5-(2-trifluoromethyl-phenyl)-1H-benzimidazol-2-yl]-8,8-dimethyl-1-oxa-2-aza-spiro[4.5]dec-2-ene hydrochloride]	92%	7.30
Fc1cccc(F)c1-c1ccc2[nH]c(C3=NOC4(CCCCC4)C3)nc2c1 [Cpd 26, 3-[5-(2,6-Difluoro-phenyl)-1H-benzimidazol-2-yl]-1-oxa-2-aza-spiro[4.5]dec-2-ene trifluoroacetic acid salt]	100%	–
Cc1c(-c2ccccc2C(F)(F)F)cc(C)c2[nH]c(C3=NOC4(CCCCC4)C3)nc12 [Cpd 54, 3-[4,7-Dimethyl-5-(2-trifluoromethylphenyl)-1H-benzimidazol-2-yl]-1-oxa-2-aza-spiro[4.5]dec-2-ene hydrochloride]	97%	8.24
CC1(C)CCC2(CC1)CC(c1nc3cc(-c4ccccc4C(F)(F)F)ccc3[nH]1)=NO2 [Cpd 36, 8,8-Dimethyl-3-[5-(2-trifluoromethyl-phenyl)-1H-benzimidazol-2-yl]-1-oxa-2-aza-spiro[4.5]dec-2-ene hydrochloride]	99%	7.90

The next lines start with the values.

inhibition at 0.2 µM	pIC50	SMILES
100%	8.77	FC(F)(F)c1ccccc1-c1cc(Br)c2[nH]c(C3=NOC4(CCOCC4)C3)nc2c1 [Cpd 33, 3-[7-Bromo-5-(2-trifluoromethyl-phenyl)-1H-benzimidazol-2-yl]-1,8-dioxa-2-aza-spiro[4.5]dec-2-ene hydrochloride]
97%	8.33	Cc1c(-c2ccccc2C(F)(F)F)cc(Cl)c2[nH]c(C3=NOC4(CCCCC4)C3)nc12 [Cpd 55, 3-[7-Chloro-4-methyl-5-(2-trifluoromethylphenyl)-1H-benzimidazol-2-yl]-1-oxa-2-aza-spiro[4.5]dec-2-ene hydrochloride]
102%	8.57	FC(F)(F)c1ccccc1-c1cc2nc(C3=NOC4(CCCCC4)C3)[nH]c2cn1 [Cpd 57, 2-(1-Oxa-2-aza-spiro[4.5]dec-2-en-3-yl)-6-(2-trifluoromethyl-phenyl)-3H-imidazo[4,5-c]pyridine hydrochloride]
103%	8.25	Cc1c(-c2ccccc2C(F)(F)F)ccc2[nH]c(C3=NOC4(CCCCC4)C3)nc12 [Cpd 24, 3-[4-Methyl-5-(2-trifluoromethyl-phenyl)-1H-benzimidazol-2-yl]-1-oxa-2-aza-spiro[4.5]dec-2-ene hydrochloride]
100%	8.31	Cc1cc(-c2ccccc2C(F)(F)F)cc2nc(C3=NOC4(CCOCC4)C3)[nH]c12 [Cpd 32, 3-[7-Methyl-5-(2-trifluoromethyl-phenyl)-1H-benzimidazol-2-yl]-1,8-dioxa-2-aza-spiro[4.5]dec-2-ene hydrochloride]
102%	8.41	CC1C(c2nc3cc(-c4ccccc4C(F)(F)F)ccc3[nH]2)=NOC12CCCCC2 (stereo not drawn) [Cpd 15, 4-Methyl-3-[5-(2-trifluoromethyl-phenyl)-1H-benzimidazol-2-yl]-1-oxa-2-aza-spiro[4.5]dec-2-ene hydrochloride]
97%	8.74	Cc1cc(-c2ccccc2C(F)(F)F)cc2nc(C3=NOC4(CCCCC4)C3)[nH]c12 [Cpd 46, 3-[7-Methyl-5-(2-trifluoromethylphenyl)-1H-benzimidazol-2-yl]-1-oxa-2-aza-spiro[4.5]dec-2-ene hydrochloride]
100%	9.10	OC/C=C\c1cc(-c2ccccc2C(F)(F)F)cc2nc(C3=NOC4(CCCCC4)C3)[nH]c12 [Cpd 25, 3-[2-(1-Oxa-2-aza-spiro[4.5]dec-2-en-3-yl)-6-(2-trifluoromethylphenyl)-3H-benzimidazol-4-yl]-prop-2-en-1-ol]
97%	8.41	Cc1cc(-c2c(F)cccc2F)cc2nc(C3=NOC4(CCCCC4)C3)[nH]c12 [Cpd 48, 3-[7-Methyl-5-(2,6-difluorophenyl)-1H-benzimidazol-2-yl]-1-oxa-2-aza-spiro[4.5]dec-2-ene hydrochloride]
101%	8.70	FC(F)(F)c1ccccc1-c1cnc2[nH]c(C3=NOC4(CCCCC4)C3)nc2c1 [Cpd 58, 2-(1-Oxa-2-aza-spiro[4.5]dec-2-en-3-yl)-6-(2-trifluoromethyl-phenyl)-3H-imidazo[4,5-b]pyridine hydrochloride]
99%	8.77	CC(C)(O)CCc1cc(-c2ccccc2C(F)(F)F)cc2nc(C3=NOC4(CCCCC4)C3)[nH]c12 [Cpd 43, 2-Methyl-4-[2-(1-oxa-2-aza-spiro[4.5]dec-2-en-3-yl)-6-(2-trifluoromethylphenyl)-3H-benzimidazol-4-yl]-butan-2-ol]
103%	8.74	Cc1cc(-c2ccccc2OC(F)F)cc2nc(C3=NOC4(CCCCC4)C3)[nH]c12 [Cpd 20, 3-[5-(2-Difluoromethoxyphenyl)-7-methyl-1H-benzimidazol-2-yl]-1-oxa-2-aza-spiro[4.5]dec-2-ene hydrochloride]
100%	8.68	Fc1cccc(F)c1-c1cc(Cl)c2[nH]c(C3=NOC4(CCCCC4)C3)nc2c1 [Cpd 44, 3-[7-Chloro-5-(2,6-difluorophenyl)-1H-benzimidazol-2-yl]-1-oxa-2-aza-spiro[4.5]dec-2-ene methanesulfonate]
101%	8.34	FC(F)(F)c1ccccc1-c1ccc2[nH]c(C3=NOC4(CCCCC4)C3)nc2n1 [Cpd 56, 2-(1-Oxa-2-aza-spiro[4.5]dec-2-en-3-yl)-5-(2-trifluoromethyl-phenyl)-1H-imidazo[4,5-b]pyridine hydrochloride]
97%	9.00	COCCCc1cc(-c2ccccc2C(F)(F)F)cc2nc(C3=NOC4(CCCCC4)C3)[nH]c12 [Cpd 52, 3-[7-(3-Methoxy-propyl)-5-(2-trifluoromethylphenyl)-1H-benzimidazol-2-yl]-1-oxa-2-aza-spiro[4.5]dec-2-ene hydrochloride]
102%	8.82	FC(F)(F)Cc1ccccc1-c1ccc2[nH]c(C3=NOC4(CCCCC4)C3)nc2c1 [Cpd 11, 3-{5-[2-(2,2,2-Trifluoroethyl)-phenyl]-1H-benzimidazol-2-yl}-1-oxa-2-aza-spiro[4.5]dec-2-ene]
101%	8.72	FC(F)(F)Oc1ccccc1-c1cc(Cl)c2[nH]c(C3=NOC4(CCCCC4)C3)nc2c1 [Cpd 50, 3-[7-Chloro-5-(2-trifluoromethoxyphenyl)-1H-benzimidazol-2-yl]-1-oxa-2-aza-spiro[4.5]dec-2-ene methanesulfonate]
99%	8.28	CC1(C)CCC2(CC1)CC(c1nc3cc(-c4ccccc4Cl)ccc3[nH]1)=NO2 [Cpd 37, 3-[5-(Chloro-phenyl)-1H-benzimidazol-2-yl]-8,8-dimethyl-1-oxa-2-aza-spiro[4.5]dec-2-ene hydrochloride]
